Key:
[1] = test system: Perennial rye grass; assay: Turf grass selectivity, greenhouse pot test; format: in vivo
Source text: (§1) Turf mats of Zoysia grass, bentgrass, Kentucky bluegrass, or perennial rye grass known as cool season turfgrass or western grass were purchased and cut into a piece having 10 cm×20 cm size. Then, each piece was transplanted in a rectangular plastic pot (surface area of 300 cm^2) in which sandy loam and mixed top soil (Boo-Nong Top Soil No. 3, for horticultural use) are filled in 1:1 ratio. After the transplantation, the grasses were cut once a week to maintain the blade height at 0.5-1.0 cm and cultivated for one month in a green house of which temperature was kept at 25˜30° C. for daytime and 15˜25° C. for nighttime, respectively. Then, the ‘test chemical’ of the above Examples 1 and 2 or ‘control chemical’ was applied thereto in an amount of 400, 200, 100, 50, 25, 12, 6, 3 g ai/ha. As a “control chemical”, pyrazolsulfuron ethyl wettable agent (manufactured by Dongbu Fine Chemicals; herein after, referred to as ‘control chemical No. 1’) and flazasulfuron (manufactured by Dongbu HiTek; herein after, referred to as ‘control chemical No. 2’), both sulfonylurea herbicides for a turf grass, were used. Application was carried out by using a track sprayer (R&D Sprayer, USA) equipped with Teejet 8002 nozzle (Spraying Systems Co., USA), and the application amount was adjusted to 2,000 L/ha, which is a typical application amount for a golf course in Korea. Application solution was prepared by diluting the “test chemical” or the “control chemical” with tap water. […] The test was repeated three times in a random arrangement and the results are given in average value of each test (see Table 2 below).

[2] = test system: Zoysia japonica; assay: Turf grass selectivity, greenhouse pot test; format: in vivo; conditions: Zoysia japonica
Source text: as §1

[3] = test system: Kentucky bluegrass; assay: Turf grass selectivity, greenhouse pot test; format: in vivo, Poa pratensis
Source text: as §1

[4] = test system: Digitaria sanguinalis; assay: Weed spectrum, greenhouse pot test; format: in vivo; conditions: two weeks after application
Source text: (§2) To a rectangular plastic pot (surface area of 300 cm^2) in which sandy loam and mixed top soil (Boo-Nong Top Soil No. 3, for horticultural use) are filled in 1:1 ratio, eight different kinds of weed seeds including Poa annua and Digitaria sanguinalis as poaceae weed, Cyperus amuricus as cyperaceae weeds and Trifolium repens, Kummerowia striata, fleabane, Veronica officinalis and Portulaca oleracea as broadleaf weeds were sewn (50 to 100 seeds per each weed). These weeds are representative examples of the weeds which typically thrive in a turf grass field.
(§3) The pot was kept in a greenhouse which was maintained at 25˜30° C. for daytime and 15˜25° C. for nighttime, respectively, and irrigation was carried out regularly. Fourteen days after seeding, when the turf grass and the weeds reached approximately at three-leaf stage, the weed seeds were again sewn in separate two pots or “Test chemical” and “Control chemical” were applied in the same manner as the method described above. In this regard, when plants were cultivated for two weeks and then the chemical application was carried out, it is designated as “post-emergence” treatment. On the other than, when the seeding was carried right before the chemical application, it is designated as “pre-emergence” treatment. Preparation of a chemical solution, application method, etc. are the same as above described for evaluation of turf grass selectivity. Two weeks after the chemical application, efficacy of the chemicals for each type of the weeds was evaluated (visual evaluation) based on 0 to 100 scale (i.e., 0 indicates no efficacy and 100 indicates complete weed control).

[5] = test system: Kummerowia striata; assay: Weed spectrum, greenhouse pot test; format: in vivo; conditions: two weeks after application
Source text: as §2, §3

[6] = test system: Poa annua; assay: Weed spectrum, greenhouse pot test; format: in vivo; conditions: two weeks after application
Source text: as §2, §3

[7] = test system: Trifolium repens; assay: Weed spectrum, greenhouse pot test; format: in vivo; conditions: two weeks after application
Source text: as §2, §3

[8] = test system: Dandelion; assay: Weed spectrum, greenhouse pot test; format: in vivo; conditions: two weeks after application

## CCOC(=O)c1cnn(C)c1S(=O)(=O)NC(=O)Nc1nc(OC)cc(OC)n1 [Control chemical No. 1, Pyrazosulfuron ethyl, reference compound]
[1]; 3 g ai/ha, 2 weeks
  phytotoxicity (visual assessment 0-10): 0
[1]; 3 g ai/ha, 4 weeks
  phytotoxicity (visual assessment 0-10): 0
[1]; 6 g ai/ha, 2 weeks
  phytotoxicity (visual assessment 0-10): 0
[1]; 6 g ai/ha, 4 weeks
  phytotoxicity (visual assessment 0-10): 0
[1]; 12 g ai/ha, 2 weeks
  phytotoxicity (visual assessment 0-10): 0
[1]; 12 g ai/ha, 4 weeks
  phytotoxicity (visual assessment 0-10): 0
[1]; 25 g ai/ha, 2 weeks
  phytotoxicity (visual assessment 0-10): 0
[1]; 25 g ai/ha, 4 weeks
  phytotoxicity (visual assessment 0-10): 0
[1]; 50 g ai/ha, 2 weeks
  phytotoxicity (visual assessment 0-10): 0
[1]; 50 g ai/ha, 4 weeks
  phytotoxicity (visual assessment 0-10): 0
[1]; 100 g ai/ha, 2 weeks
  phytotoxicity (visual assessment 0-10): 0
[1]; 100 g ai/ha, 4 weeks
  phytotoxicity (visual assessment 0-10): 0
[1]; 200 g ai/ha, 2 weeks
  phytotoxicity (visual assessment 0-10): 0
[1]; 200 g ai/ha, 4 weeks
  phytotoxicity (visual assessment 0-10): 0
[1]; 400 g ai/ha, 2 weeks
  phytotoxicity (visual assessment 0-10): 1
[1]; 400 g ai/ha, 4 weeks
  phytotoxicity (visual assessment 0-10): 0
[2]; 3 g ai/ha, 2 weeks
  phytotoxicity (visual assessment 0-10): 0
[2]; 3 g ai/ha, 4 weeks
  phytotoxicity (visual assessment 0-10): 0
[2]; 6 g ai/ha, 2 weeks
  phytotoxicity (visual assessment 0-10): 0
[2]; 6 g ai/ha, 4 weeks
  phytotoxicity (visual assessment 0-10): 0
[2]; 12 g ai/ha, 2 weeks
  phytotoxicity (visual assessment 0-10): 0
[2]; 12 g ai/ha, 4 weeks
  phytotoxicity (visual assessment 0-10): 0
[2]; 25 g ai/ha, 2 weeks
  phytotoxicity (visual assessment 0-10): 0
[2]; 25 g ai/ha, 4 weeks
  phytotoxicity (visual assessment 0-10): 0
[2]; 50 g ai/ha, 2 weeks
  phytotoxicity (visual assessment 0-10): 0
[2]; 50 g ai/ha, 4 weeks
  phytotoxicity (visual assessment 0-10): 0
[2]; 100 g ai/ha, 2 weeks
  phytotoxicity (visual assessment 0-10): 0
[2]; 100 g ai/ha, 4 weeks
  phytotoxicity (visual assessment 0-10): 0
[2]; 200 g ai/ha, 2 weeks
  phytotoxicity (visual assessment 0-10): 0
[2]; 200 g ai/ha, 4 weeks
  phytotoxicity (visual assessment 0-10): 0
[2]; 400 g ai/ha, 2 weeks
  phytotoxicity (visual assessment 0-10): 0
[2]; 400 g ai/ha, 4 weeks
  phytotoxicity (visual assessment 0-10): 0
[3]; 3 g ai/ha, 2 weeks
  phytotoxicity (visual assessment 0-10): 0
[3]; 3 g ai/ha, 4 weeks
  phytotoxicity (visual assessment 0-10): 0
[3]; 6 g ai/ha, 2 weeks
  phytotoxicity (visual assessment 0-10): 0
[3]; 6 g ai/ha, 4 weeks
  phytotoxicity (visual assessment 0-10): 0
[3]; 12 g ai/ha, 2 weeks
  phytotoxicity (visual assessment 0-10): 0
[3]; 12 g ai/ha, 4 weeks
  phytotoxicity (visual assessment 0-10): 0
[3]; 25 g ai/ha, 2 weeks
  phytotoxicity (visual assessment 0-10): 0
[3]; 25 g ai/ha, 4 weeks
  phytotoxicity (visual assessment 0-10): 0
[3]; 50 g ai/ha, 2 weeks
  phytotoxicity (visual assessment 0-10): 0
[3]; 50 g ai/ha, 4 weeks
  phytotoxicity (visual assessment 0-10): 0
[3]; 100 g ai/ha, 2 weeks
  phytotoxicity (visual assessment 0-10): 0
[3]; 100 g ai/ha, 4 weeks
  phytotoxicity (visual assessment 0-10): 0
[3]; 200 g ai/ha, 2 weeks
  phytotoxicity (visual assessment 0-10): 1
[3]; 200 g ai/ha, 4 weeks
  phytotoxicity (visual assessment 0-10): 0
[3]; 400 g ai/ha, 2 weeks
  phytotoxicity (visual assessment 0-10): 2
[3]; 400 g ai/ha, 4 weeks
  phytotoxicity (visual assessment 0-10): 1
[4]; Post-emergence, 12 g ai/ha
  efficacy (0-100 scale): 0
[4]; Post-emergence, 25 g ai/ha
  efficacy (0-100 scale): 0
[4]; Post-emergence, 50 g ai/ha
  efficacy (0-100 scale): 0
[4]; Post-emergence, 100 g ai/ha
  efficacy (0-100 scale): 10
[4]; Pre-emergence, 12 g ai/ha
  efficacy (0-100 scale): 0
[4]; Pre-emergence, 25 g ai/ha
  efficacy (0-100 scale): 10
[4]; Pre-emergence, 50 g ai/ha
  efficacy (0-100 scale): 30
[4]; Pre-emergence, 100 g ai/ha
  efficacy (0-100 scale): 50
[5]; Post-emergence, 12 g ai/ha
  efficacy (0-100 scale): 0
[5]; Post-emergence, 25 g ai/ha
  efficacy (0-100 scale): 30
[5]; Post-emergence, 50 g ai/ha
  efficacy (0-100 scale): 40
[5]; Post-emergence, 100 g ai/ha
  efficacy (0-100 scale): 50
[5]; Pre-emergence, 12 g ai/ha
  efficacy (0-100 scale): 30
[5]; Pre-emergence, 25 g ai/ha
  efficacy (0-100 scale): 50
[5]; Pre-emergence, 50 g ai/ha
  efficacy (0-100 scale): 50
[5]; Pre-emergence, 100 g ai/ha
  efficacy (0-100 scale): 70
[6]; Post-emergence, 12 g ai/ha
  efficacy (0-100 scale): 0
[6]; Post-emergence, 25 g ai/ha
  efficacy (0-100 scale): 0
[6]; Post-emergence, 50 g ai/ha
  efficacy (0-100 scale): 0
[6]; Post-emergence, 100 g ai/ha
  efficacy (0-100 scale): 10
[6]; Pre-emergence, 12 g ai/ha
  efficacy (0-100 scale): 0
[6]; Pre-emergence, 25 g ai/ha
  efficacy (0-100 scale): 10
[6]; Pre-emergence, 50 g ai/ha
  efficacy (0-100 scale): 20
[6]; Pre-emergence, 100 g ai/ha
  efficacy (0-100 scale): 20
[7]; Post-emergence, 12 g ai/ha
  efficacy (0-100 scale): 20
[7]; Post-emergence, 25 g ai/ha
  efficacy (0-100 scale): 60
[7]; Post-emergence, 50 g ai/ha
  efficacy (0-100 scale): 70
[7]; Post-emergence, 100 g ai/ha
  efficacy (0-100 scale): 80
[7]; Pre-emergence, 12 g ai/ha
  efficacy (0-100 scale): 40
[7]; Pre-emergence, 25 g ai/ha
  efficacy (0-100 scale): 60
[7]; Pre-emergence, 50 g ai/ha
  efficacy (0-100 scale): 70
[7]; Pre-emergence, 100 g ai/ha
  efficacy (0-100 scale): 70
[8]; Post-emergence, 12 g ai/ha
  efficacy (0-100 scale): 80
[8]; Post-emergence, 25 g ai/ha
  efficacy (0-100 scale): 90
[8]; Post-emergence, 50 g ai/ha
  efficacy (0-100 scale): 100
[8]; Post-emergence, 100 g ai/ha
  efficacy (0-100 scale): 100
[8]; Pre-emergence, 12 g ai/ha
  efficacy (0-100 scale): 70
[8]; Pre-emergence, 25 g ai/ha
  efficacy (0-100 scale): 80
[8]; Pre-emergence, 50 g ai/ha
  efficacy (0-100 scale): 90
[8]; Pre-emergence, 100 g ai/ha
  efficacy (0-100 scale): 100

— US20100035755A1, “METHOD OF CONTROLLING WEEDS IN A TURF GRASS BY USING SULFONYLUREA COMPOUNDS” (Moghu Research Center Ltd., priority 2008, published 2010)
